In US20080312435A1, “Imine Compound” (TAISHO PHARMACEUTICAL CO., LTD., priority 2004, published 2008):

Compared with `O=C(/N=c1\ccccn1CC1CC1)C(F)(F)F`, `O=C(/N=c1\ccccn1CC1CC1)c1cccc(C(F)(F)F)c1` is higher in melting point: 90 to 91 °C for the first, 105.5 to 106.5 °C for the second.

Compared with `O=C(/N=c1\ccccn1CC1CC1)c1cc(Cl)ccc1Cl`, `O=C(/N=c1\ccccn1CC1CC1)c1cc(C(F)(F)F)ccc1F` is higher in melting point: 53.5 to 54.5 °C for the first, 127 to 127.5 °C for the second.

Compared with `Cc1s/c(=N\C(=O)C(F)(F)C(F)(F)C(F)(F)F)n(CC2CC2)c1C`, `CCn1c(C)c(C(C)(C)C)s/c1=N\C(=O)C(F)(F)C(F)(F)C(F)(F)F` is higher in melting point: 92 to 94 °C for the first, 113 to 115 °C for the second.

Compared with `CCc1s/c(=N\C(=O)c2cccc(C(F)(F)F)c2F)n(CC)c1C`, `CCn1c(C)c(Cl)s/c1=N\C(=O)c1cccc(C(F)(F)F)c1F` is higher in melting point: 115 to 117 °C for the first, 158 to 160 °C for the second.

`O=C(/N=c1\ccccn1CC1CC1)c1cccc(F)c1C(F)(F)F` and `O=C(/N=c1\ccccn1CC1CC1)c1cc(F)ccc1C(F)(F)F` cannot be ordered by melting point: 88 to 89 °C for the first, 88.5 to 89 °C for the second.

First: Cc1c(C(C)C)s/c(=N\C(=O)c2cccc(C(F)(F)F)c2F)n1C
Second: CCn1c(C)cs/c1=N\C(=O)c1cccc(C(F)(F)F)c1F
The melting point of the first is higher: 89 to 91 °C for the first, 48 to 50 °C for the second.

First: Cc1c(C(C)C)s/c(=N\C(=O)c2cccc(C(F)(F)F)c2)n1CC1CC1
Second: Cc1c(C(=O)NC(C)C)s/c(=N\C(=O)c2cccc(C(F)(F)F)c2)n1CC1CC1
The melting point of the first is lower: 89 to 91 °C for the first, 212 to 214 °C for the second.

First: Cc1ccccc1C(=O)/N=c1\sc(C(C)(C)C)c(C)n1C
Second: Cc1c(C(C)(C)C)s/c(=N\C(=O)c2cccc(F)c2F)n1C
The melting point of the first is lower: 173 to 175 °C for the first, 176 to 178 °C for the second.

First: Cc1c(C(C)(C)C)s/c(=N\C(=O)c2cccc(Br)c2)n1C
Second: Cc1c(C(C)(C)C)s/c(=N\C(=O)c2cccc(C#N)c2)n1C
The melting point of the first is higher: 173 to 175 °C for the first, 131 to 133 °C for the second.

First: Cc1c(C(C)(C)C)s/c(=N\C(=O)c2cccc(N(C)C)c2)n1C
Second: Cc1c(C(C)(C)C)s/c(=N\C(=O)c2cccc(C(=O)O)c2)n1C
The melting point of the first is lower: 189 to 190 °C for the first, 250 to 252 °C for the second.

First: COC(=O)c1cccc(C(=O)/N=c2\sc(C(C)(C)C)c(C)n2C)c1
Second: Cc1c(C(C)(C)C)s/c(=N\C(=O)c2cccnc2)n1C.Cl
The melting point of the first is lower: 192 to 193 °C for the first, 202 to 203 °C for the second.

First: COc1ccc(C(=O)/N=c2\sc(C(C)(C)C)c(C)n2C)c(OC)c1
Second: Cc1c(C(C)(C)C)s/c(=N\C(=O)c2cc(C(F)(F)F)ccc2F)n1C
The melting point of the first is lower: 138 to 140 °C for the first, 140 to 142 °C for the second.

First: O=C(/N=c1\ccccn1CCc1ccccc1)c1cccc(C(F)(F)F)c1F
Second: CCCCn1cccc/c1=N\C(=O)c1cccc(C(F)(F)F)c1F
The melting point of the first is higher: 117 to 118 °C for the first, 51 to 52 °C for the second.

Compared with `CCCn1c(C)c(C(C)(C)C)s/c1=N\C(=O)c1cccc(C(F)(F)F)c1`, `Cc1s/c(=N\C(=O)c2cccc(C(F)(F)F)c2)n(C)c1C` is lower in melting point: 172 to 174 °C for the first, 110 to 111 °C for the second.

First: Cc1c(C(C)(C)C)s/c(=N\C(=O)c2ccccc2)n1CC1CC1
Second: Cc1c(C(C)(C)C)s/c(=N\C(=O)Cc2ccccc2)n1CC1CC1
The melting point of the first is higher: 106 to 107 °C for the first, 92 to 94 °C for the second.

First: Cc1c(C(C)(C)C)s/c(=N\C(=O)c2ccccc2O)n1CC1CC1
Second: Cc1ccc(C(=O)/N=c2\sc(C(C)(C)C)c(C)n2CC2CC2)cn1
The melting point of the first is lower: 178 to 180 °C for the first, 228 to 230 °C for the second.

First: CCN(CC)c1cccc(C(=O)/N=c2\sc(C(C)(C)C)c(C)n2CC2CC2)c1
Second: CCN(CC)c1ccc(C(=O)/N=c2\sc(C(C)(C)C)c(C)n2CC2CC2)cc1
The melting point of the first is lower: 89 to 90 °C for the first, 134 to 136 °C for the second.

Compared with `Cc1c(C(C)(C)C)s/c(=N\C(=O)c2cccc(N3CCCC3)c2)n1CC1CC1`, `Cc1c(C(C)(C)C)s/c(=N\C(=O)c2cccc(N3CCOCC3)c2)n1CC1CC1` is lower in melting point: 118 to 120 °C for the first, 114 to 115 °C for the second.

`Cc1c(C(C)(C)C)s/c(=N\C(=O)c2ccc(F)c(C(F)(F)F)c2)n1CC1CC1` and `Cc1c(C(C)(C)C)s/c(=N\C(=O)c2ccc(Cl)c(C(F)(F)F)c2)n1CC1CC1` cannot be ordered by melting point: 123 to 124 °C for the first, 122 to 124 °C for the second.

First: Cc1c(C(C)(C)C)s/c(=N\C(=O)c2cc(F)cc(C(F)(F)F)c2)n1CC1CC1
Second: CCCNc1ccc(C(F)(F)F)cc1C(=O)/N=c1\sc(C(C)(C)C)c(C)n1CC1CC1
The melting point of the first is lower: 100 to 102 °C for the first, 131 to 132 °C for the second.

First: O=C(/N=c1\ccc(C(F)(F)F)cn1CC1CC1)c1ccccc1C(F)(F)F
Second: O=C(/N=c1\ccc(C(F)(F)F)cn1CC1CC1)c1cc(C(F)(F)F)ccc1F
The melting point of the first is lower: 93 to 93.5 °C for the first, 109 to 110 °C for the second.

First: Cc1c(C(C)(C)C)s/c(=N\C(=O)c2cc(C(F)(F)F)ccc2N2CCC2)n1CC1CC1
Second: Cc1c(C(C)(C)C)s/c(=N\C(=O)c2cc(C(F)(F)F)ccc2N2CCOCC2)n1CC1CC1
The melting point of the first is higher: 100 to 102 °C for the first, 86 to 87 °C for the second.

First: Cc1c(C(C)(C)C)s/c(=N\C(=O)c2ccc(F)c(C#N)c2)n1CC1CC1
Second: Cc1c(C(C)(C)C)s/c(=N\C(=O)c2cncc(Br)c2)n1CC1CC1
The melting point of the first is higher: 195 to 197 °C for the first, 152 to 154 °C for the second.

Compared with `Cc1c(C(C)(C)C)s/c(=N\C(=O)c2cccnc2OC(C)C)n1CC1CC1`, `Cc1c(C(C)(C)C)s/c(=N\C(=O)c2cccnc2OC2C=CC=CC2)n1CC1CC1` (stereo not shown) is lower in melting point: 151 to 153 °C for the first, 111 to 114 °C for the second.

First: COc1cc(C(=O)/N=c2\sc(C(C)(C)C)c(C)n2CC2CC2)c(OC)nn1
Second: COc1cc(C(=O)/N=c2\sc(C(C)(C)C)c(C)n2CC2CC2)cc(Cl)n1
The melting point of the first is lower: 124 to 126 °C for the first, 127 to 128 °C for the second.

First: Cc1c(C(C)(C)C)s/c(=N\C(=O)c2cccnc2N2CCCC2)n1CC1CC1
Second: Cc1c(C(C)(C)C)s/c(=N\C(=O)C2CCC2)n1CC1CC1
The melting point of the first is lower: 97 to 98 °C for the first, 189 to 191 °C for the second.

First: CCCc1c(C(=O)/N=c2\sc(C(C)(C)C)c(C)n2CC2CC2)cnn1-c1ccccc1
Second: Cc1c(C(C)(C)C)s/c(=N\C(=O)Cc2cccs2)n1CC1CC1
The melting point of the first is lower: 104 to 105 °C for the first, 157 to 159 °C for the second.

First: CCOC(=O)c1s/c(=N\C(=O)c2cccc(C(F)(F)F)c2)n(CC2CC2)c1C
Second: Cc1c(C(=O)O)s/c(=N\C(=O)c2cccc(C(F)(F)F)c2)n1CC1CC1
The melting point of the first is lower: 115 to 116 °C for the first, 291 to 293 °C for the second.

Compared with `Cc1c(C(=O)N2CCCC2)s/c(=N\C(=O)c2cccc(C(F)(F)F)c2)n1CC1CC1`, `Cc1ccc(C(F)(F)F)cc1C(=O)/N=c1\sc(C(C)(C)C)nn1CC1CC1` is lower in melting point: 125 to 127 °C for the first, 63 to 65 °C for the second.

First: CC(C)c1s/c(=N\C(=O)c2cncc(Br)c2)n(CC2CC2)c1C(F)(F)F
Second: Cc1s/c(=N\C(=O)c2ccc(Br)cc2F)n(CC2CC2)c1C
The melting point of the first is lower: 139 to 141 °C for the first, 154 to 155 °C for the second.

First: C=CCn1c(-c2ccccc2)c(-c2ccccc2)s/c1=N\C(=O)c1ccccc1
Second: Cc1ccccc1C(=O)/N=c1\sc2ccccc2n1CC1CC1
The melting point of the first is higher: 141 to 143 °C for the first, 115 to 117 °C for the second.

First: CN(C)c1cccc(C(=O)/N=c2\sc3ccccc3n2CC2CC2)c1
Second: Cc1ncccc1C(=O)/N=c1\sc2ccccc2n1CC1CC1
The melting point of the first is lower: 156 to 158 °C for the first, 181 to 183 °C for the second.

First: Cc1cc2s/c(=N\C(=O)c3ccccc3C)n(CC3CC3)c2cc1C
Second: Cc1ccccc1C(=O)/N=c1\sc2cc(F)ccc2n1CC1CC1
The melting point of the first is higher: 160 to 161 °C for the first, 143 to 145 °C for the second.

First: Cc1ccccc1C(=O)/N=c1/sc2cccc(Cl)c2n1CC1CC1
Second: Cc1ccccc1C(=O)/N=c1/sc2cccc(C)c2n1CC1CC1
The melting point of the first is higher: 146 to 148 °C for the first, 133 to 134 °C for the second.

First: Cc1ccccc1C(=O)/N=c1/sc2cc(F)cc(F)c2n1CC1CC1
Second: Cc1s/c(=N\C(=O)c2cc(Cl)ccc2Cl)n(CC2CC2)c1C
The melting point of the first is higher: 146 to 148 °C for the first, 113 to 115 °C for the second.

First: COCCn1/c(=N/C(=O)c2cccc(C(F)(F)F)c2F)cc(C)n1C
Second: COCCCn1/c(=N/C(=O)c2cccc(C(F)(F)F)c2F)cc(C)n1C
The melting point of the first is higher: 144 to 145 °C for the first, 88 to 90 °C for the second.

First: Cn1c(C(C)(C)C)c/c(=N\C(=O)C(F)(F)F)n1CC1CC1
Second: COc1ccc(C(F)(F)F)cc1C(=O)/N=c1\cc(C(C)(C)C)n(C)n1CC1CC1
The melting point of the first is higher: 122 to 124 °C for the first, 99 to 101 °C for the second.

First: Cn1c(C(C)(C)C)c/c(=N\C(=O)c2cccc(OC(F)(F)C(F)F)c2)n1CC1CC1
Second: Cc1ccc(C(=O)/N=c2\cc(C(C)(C)C)n(C)n2CC2CC2)cc1Cl
The melting point of the first is lower: 110 to 111 °C for the first, 135 to 136 °C for the second.

Compared with `Cn1c(C(C)(C)C)c/c(=N\C(=O)c2cccc(Cl)c2Cl)n1CC1CC1`, `Cc1cccc(C(=O)/N=c2\cc(C(C)(C)C)n(C)n2CC2CC2)c1I` is lower in melting point: 158 to 159 °C for the first, 147 to 148 °C for the second.

`Cc1c(Br)cccc1C(=O)/N=c1\cc(C(C)(C)C)n(C)n1CC1CC1` and `Cc1c(I)cccc1C(=O)/N=c1\cc(C(C)(C)C)n(C)n1CC1CC1` cannot be ordered by melting point: 138 to 139 °C for the first, 138 to 140 °C for the second.

First: Cc1ccc(C(=O)/N=c2\cc(C(C)(C)C)n(C)n2CC2CC2)c(Br)c1
Second: Cc1ccc(F)cc1C(=O)/N=c1\cc(C(C)(C)C)n(C)n1CC1CC1
The melting point of the first is lower: 153 to 154 °C for the first, 161 to 162 °C for the second.

Compared with `COc1cc(Cl)ccc1C(=O)/N=c1\cc(C(C)(C)C)n(C)n1CC1CC1`, `Cn1c(C(C)(C)C)c/c(=N\C(=S)Nc2ccc(F)cc2)n1CC1CC1` is higher in melting point: 128 to 129 °C for the first, 147.5 to 149.5 °C for the second.

Compared with `Cc1c(C(C)(C)C)n(C)n(CC2CC2)/c1=N/C(=O)c1cccc(C(F)(F)F)c1F`, `O=C(/N=c1\sccn1CC1CC1)c1cccc(C(F)(F)F)c1F` is lower in melting point: 149 to 150 °C for the first, 96 to 97 °C for the second.

Compared with `Cn1c(C2CC2)c/c(=N\C(=O)c2cccc(C(F)(F)F)c2F)n1-c1ccccc1`, `Cn1cccc/c1=N\C(=O)c1cccc(C(F)(F)F)c1F` is lower in melting point: 168.5 to 169.5 °C for the first, 146 to 147 °C for the second.

First: Cn1c(C(F)(F)F)c(-c2ccccc2)/c(=N\C(=O)c2cccc(C(F)(F)F)c2F)n1C
Second: CCn1cccc/c1=N\C(=O)c1cccc(C(F)(F)F)c1F
The melting point of the first is higher: 169.5 to 170 °C for the first, 93 to 95 °C for the second.

First: CC(C)(C)c1nn(CC2CC2)/c(=N/C(=O)c2cc(C(F)(F)F)ccc2F)s1
Second: COc1ccncc1C(=O)/N=c1\sc(C(C)(C)C)nn1CC1CC1
The melting point of the first is lower: 47 to 49 °C for the first, 94 to 95 °C for the second.

Compared with `Cc1cn(C)/c(=N/C(=O)c2cccnc2)s1`, `CCC(CC)C(=O)/N=c1\sc(C)c(C)n1CC1CC1` is lower in melting point: 173 to 174 °C for the first, 67 to 69 °C for the second.
